Data reported in patent publication US20140107109A1, “AMINO-DIHYDROTHIAZINE AND AMINO-DIOXIDO DIHYDROTHIAZINE COMPOUNDS AS BETA-SECRETASE ANTAGONISTS AND METHODS OF USE” (Amgen Inc., priority 2012, published 2014).
Where two headings read alike, the source gives them in different places.

Experiments:
[1] = target: Beta Secretase enzyme (BACE1) (Homo sapiens, UniProt P56817); assay: In vitro enzymatic BACE FRET assay; assay type: biochemical
Outline: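 Readout: dequenched fluorescence (ex 488 nm/[…]) after neutralizing with Tris buffer. Reactions, begun by adding 50 nM quenched peptide substrate spanning the BACE cleavage site, were incubated one hour at pH 4.2 in 0.05 M acetate with 100 uM genapol and 10% final DMSO.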

[2] = target: T1, Cathepsin D (Cat D) (Homo sapiens, UniProt P07339); assay: In vitro enzymatic Cathepsin D (Cat D) FRET assay; assay type: biochemical; conditions: read-out: CatD IC50
T1 construct: Recombinant Cat D was expressed in CHO cells; made in house; host or cells: CHO cells
T1 sequence (P07339 65-412, species assumed): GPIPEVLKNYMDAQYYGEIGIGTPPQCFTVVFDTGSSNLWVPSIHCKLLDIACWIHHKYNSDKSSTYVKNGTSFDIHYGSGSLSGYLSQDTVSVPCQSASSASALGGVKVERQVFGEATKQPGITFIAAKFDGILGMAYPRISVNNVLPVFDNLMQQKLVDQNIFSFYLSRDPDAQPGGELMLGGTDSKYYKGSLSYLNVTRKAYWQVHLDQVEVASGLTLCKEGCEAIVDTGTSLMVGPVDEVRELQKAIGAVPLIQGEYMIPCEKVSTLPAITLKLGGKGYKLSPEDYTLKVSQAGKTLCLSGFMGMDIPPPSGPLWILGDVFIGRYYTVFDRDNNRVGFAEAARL
Outline: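 FRET read-out: a fluorophore/quencher-labelled peptide substrate is cleaved by 9 nM Cat D (recombinant, CHO-expressed) following a one-hour preincubation with inhibitor dilutions in DMSO. Tris buffer added to neutralize pH ends the reaction before fluorescence measurement.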

[3] = system: Aβ40 in conditioned medium of cells stably expressing Amyloid Precursor Protein (APP); assay: In vitro BACE cell-based assay (HEK cell assay), Aβ40 sandwich ELISA; conditions: Homo sapiens, HEK293
Outline: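 Aβ40 in conditioned medium was quantified by time-resolved fluorescence sandwich ELISA (pAb40 capture 3 h at 4 °C, biotin-6E10 detection 2 h at 4 °C) after 24 h compound exposure of APP-expressing cells. Doses spanned 10 points from 100 μM or 10 μM top, 0.1% DMSO; IC50 was derived from percent of control.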

[4] = average IC50, enzyme assay, read-out: BACE1 FRET assay IC50
[5] = read-out: BACE1 FRET assay IC50

Chain of Beta Secretase enzyme (BACE1) (P56817 46-501): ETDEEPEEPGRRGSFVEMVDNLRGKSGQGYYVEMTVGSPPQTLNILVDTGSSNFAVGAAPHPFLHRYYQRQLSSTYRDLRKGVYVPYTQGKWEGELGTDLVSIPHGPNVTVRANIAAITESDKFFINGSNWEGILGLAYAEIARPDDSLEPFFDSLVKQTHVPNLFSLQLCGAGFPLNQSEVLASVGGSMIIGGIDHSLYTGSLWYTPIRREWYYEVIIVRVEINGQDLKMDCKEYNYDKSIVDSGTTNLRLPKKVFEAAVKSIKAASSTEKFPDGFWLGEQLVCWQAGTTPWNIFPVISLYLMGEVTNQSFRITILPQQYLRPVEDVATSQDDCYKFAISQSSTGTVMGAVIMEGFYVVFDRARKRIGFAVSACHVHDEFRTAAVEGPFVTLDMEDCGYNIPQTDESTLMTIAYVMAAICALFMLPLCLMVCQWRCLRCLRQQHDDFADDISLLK

Structure (SMILES)	IC50 [1, 4]	IC50 [2]	IC50 ([3]; average IC50, cell assay)	IC50 [1, 5]	IC50 [3]	IC50 [1]	IC50 ([1]; average IC50, read-out: BACE1 FRET assay IC50)	IC50 ([3]; average IC50, HEK cells)
Cc1cc(OCCF)cnc1C(=O)Nc1ccc(F)c([C@]2(CF)CS(=O)(=O)C(C)(C)C(N)=N2)c1 [Example 149, (S)—N-(3-(5-amino-3-(fluoromethyl)-6,6-dimethyl-1,1-dioxido-3,6-dihydro-2H-1,4-thiazin-3-yl)-4-fluorophenyl)-5-(2-fluoroethoxy)-3-methylpicolinamide]	0.00271 µM	855 µM	0.0651 µM	–	–	–	–	–
Cc1cc(OC2COC2)cnc1C(=O)Nc1ccc(F)c([C@]2(CF)CS(=O)(=O)C(C)(C)C(N)=N2)c1 [Example 150, (S)—N-(3-(5-amino-3-(fluoromethyl)-6,6-dimethyl-1,1-dioxido-3,6-dihydro-2H-1,4-thiazin-3-yl)-4-fluorophenyl)-3-methyl-5-(oxetan-3-yloxy)picolinamide]	0.0445 µM	622 µM	0.528 µM	–	–	–	–	–
Cc1cc(OCC2CCC2)cnc1C(=O)Nc1ccc(F)c([C@]2(CF)CS(=O)(=O)C(C)(C)C(N)=N2)c1 [Example 151, (S)—N-(3-(5-amino-3-(fluoromethyl)-6,6-dimethyl-1,1-dioxido-3,6-dihydro-2H-1,4-thiazin-3-yl)-4-fluorophenyl)-5-(cyclobutylmethoxy)-3-methylpicolinamide]	–	232 µM	–	0.0017 µM	0.1 µM	–	–	–
Cc1c(CNc2ccc(F)c([C@]3(C)CS(=O)(=O)C(C)(C)C(N)=N3)c2)nc2ccc(Cl)cn12 [Example 152, (R)-5-amino-3-(5-(((6-chloro-3-methylimidazo[1,2-a]pyridin-2-yl)methyl)amino)-2-fluorophenyl)-3,6,6-trimethyl-3,6-dihydro-2H-1,4-thiazine 1,1-dioxide]	2.94 µM	1460 µM	0.302 µM	–	–	–	–	–
CC1(C)C(N)=N[C@](C)(c2cc(C(=O)Nc3ccc(Cl)cc3)ccc2F)CS1(=O)=O [Example 153, (R)-3-(5-amino-3,6,6-trimethyl-1,1-dioxido-3,6-dihydro-2H-1,4-thiazin-3-yl)-N-(4-chlorophenyl)-4-fluorobenzamide]	4.68 µM	237 µM	3.21 µM	–	–	–	–	–
C[C@@]1(c2cccc(Br)c2)CS(=O)(=O)C2(CCC2)C(N)=N1 [Example 154, (R)-9-amino-7-(3-bromophenyl)-7-methyl-5-thia-8-azaspiro[3.5]non-8-ene 5,5-dioxide]	6.06 µM	31.2 µM	2.39 µM	–	–	–	–	–
COc1cnc(C(=O)Nc2ccc(F)c([C@]3(CF)CS(=O)(=O)C(C)(C)C(N)=N3)c2)c(OC)n1 [Example 155, (S)—N-(3-(5-amino-3-(fluoromethyl)-6,6-dimethyl-1,1-dioxido-3,6-dihydro-2H-1,4-thiazin-3-yl)-4-fluorophenyl)-3,5-dimethoxypyrazine-2-carboxamide]	0.0043 µM	470 µM	0.0351 µM	–	–	–	–	–
CC1(C)C(N)=N[C@](CF)(c2cc(NC(=O)c3cnc(OCC4CC4)cn3)ccc2F)CS1(=O)=O [Example 156, (S)—N-(3-(5-amino-3-(fluoromethyl)-6,6-dimethyl-1,1-dioxido-3,6-dihydro-2H-1,4-thiazin-3-yl)-4-fluorophenyl)-5-(cyclopropylmethoxy)pyrazine-2-carboxamide]	0.0005 µM	835 µM	0.0049 µM	–	–	–	–	–
CC1(C)C(N)=N[C@](CF)(c2cc(Nc3ncc(F)c4cc(C#N)cnc34)ccc2F)CS1(=O)=O [Example 157, (S)-8-((3-(5-amino-3-(fluoromethyl)-6,6-dimethyl-1,1-dioxido-3,6-dihydro-2H-1,4-thiazin-3-yl)-4-fluorophenyl)amino)-5-fluoro-1,7-naphthyridine-3-carbonitrile]	0.00056 µM	> 14.8 µM	0.0271 µM	–	–	–	–	–
Cc1c(C(=O)Nc2ccc(F)c([C@]3(CF)CS(=O)(=O)C(C)(C)C(N)=N3)c2)nc2ccc(Cl)cn12 [Example 158, (S)—N-(3-(5-amino-3-(fluoromethyl)-6,6-dimethyl-1,1-dioxido-3,6-dihydro-2H-1,4-thiazin-3-yl)-4-fluorophenyl)-6-chloro-3-methylimidazo[1,2-a]pyridine-2-carboxamide]	0.00303 µM	4060 µM	0.0106 µM	–	–	–	–	–
COc1cnc2c(Nc3ccc(F)c([C@]4(CF)CS(=O)(=O)C(C)(C)C(N)=N4)c3)ncc(F)c2c1 [Example 159, (S)-5-amino-3-(2-fluoro-5-((5-fluoro-3-methoxy-1,7-naphthyridin-8-yl)amino)phenyl)-3-(fluoromethyl)-6,6-dimethyl-3,6-dihydro-2H-1,4-thiazine 1,1-dioxide]	0.00055 µM	159 µM	0.0285 µM	–	–	–	–	–
CC1(C)C(N)=N[C@](C)(c2cc(NC(=O)N3CC=CCC3)ccc2F)CS1(=O)=O [Example 160, (R)—N-(3-(5-amino-3,6,6-trimethyl-1,1-dioxido-3,6-dihydro-2H-1,4-thiazin-3-yl)-4-fluorophenyl)-5,6-dihydropyridine-1(2H)-carboxamide]	0.575 µM	> 14.8 µM	0.681 µM	–	–	–	–	–
CC1(C)C(N)=N[C@](C)(c2cc(Nc3nccc4cc(OCC(F)F)cnc34)ccc2F)CS1(=O)=O [Example 161, (R)-5-amino-3-(5-((3-(2,2-difluoroethoxy)-1,7-naphthyridin-8-yl)amino)-2-fluorophenyl)-3,6,6-trimethyl-3,6-dihydro-2H-1,4-thiazine 1,1-dioxide]	0.0143 µM	447 µM	0.0178 µM	–	–	–	–	–
CC1(C)C(N)=N[C@](C)(c2cc(Nc3nncc4cc(C#N)cnc34)ccc2F)CS1(=O)=O [Example 162, (R)-8-((3-(5-amino-3,6,6-trimethyl-1,1-dioxido-3,6-dihydro-2H-1,4-thiazin-3-yl)-4-fluorophenyl)amino)pyrido[2,3-d]pyridazine-3-carbonitrile]	0.0023 µM	418 µM	0.0015 µM	–	–	–	–	–
CC1(C)C(N)=N[C@](C)(c2cc(Sc3ccccn3)ccc2F)CS1(=O)=O [Example 163, (R)-5-amino-3-(2-fluoro-5-(pyridin-2-ylthio)phenyl)-3,6,6-trimethyl-3,6-dihydro-2H-1,4-thiazine 1,1-dioxide]	3.25 µM	73.5 µM	2.36 µM	–	–	–	–	–
CC1(C)C(N)=N[C@](C)(c2cc(N)ccc2F)[C@@H](F)S1(=O)=O [Example 164, (2S,3R)-5-amino-3-(5-amino-2-fluorophenyl)-2-fluoro-3,6,6-trimethyl-3,6-dihydro-2H-1,4-thiazine 1,1-dioxide]	3.72 µM	190 µM	3.03 µM	–	–	–	–	–
CC1(C)C(N)=N[C@](C)(c2cc(Nc3c(Cl)sc4cc(C#N)cnc34)ccc2F)CS1(=O)=O [Example 167, (R)-3-((3-(5-amino-3,6,6-trimethyl-1,1-dioxido-3,6-dihydro-2H-1,4-thiazin-3-yl)-4-fluorophenyl)-amino)-2-chlorothieno[3,2-b]pyridine-6-carbonitrile]	–	11.8 µM	–	0.0139 µM	1.44 µM	–	–	–
CC1(C)C(N)=N[C@](C)(c2cc(Nc3nccc4cc(Cl)cnc34)ccc2F)[C@@H](F)S1(=O)=O [Example 168, (2S,3R)-5-amino-3-(5-((3-chloro-1,7-naphthyridin-8-yl)amino)-2-fluorophenyl)-2-fluoro-3,6,6-trimethyl-3,6-dihydro-2H-1,4-thiazine 1,1-dioxide]	0.00092 µM	66.8 µM	0.0167 µM	–	–	–	–	–
CC1(C)C(N)=N[C@](C)(c2cc(Br)c[nH]c2=O)CS1(=O)=O [Example 169, (R)-3-(5-amino-3,6,6-trimethyl-1,1-dioxido-3,6-dihydro-2H-1,4-thiazin-3-yl)-5-bromopyridin-2(1H)-one]	–	> 400 µM	> 15.6 µM	–	–	21.1 µM	–	–
COc1ncc(NC(=O)c2ccc(Cl)cn2)cc1[C@]1(C)CS(=O)(=O)C(C)(C)C(N)=N1 [Example 170, (R)—N-(5-(5-amino-3,6,6-trimethyl-1,1-dioxido-3,6-dihydro-2H-1,4-thiazin-3-yl)-6-methoxypyridin-3-yl)-5-chloropicolinamide]	0.0225 µM	305 µM	0.0289 µM	–	–	–	–	–
Cc1cc(OC(F)F)cnc1C(=O)Nc1cc([C@]2(C)CS(=O)(=O)C(C)(C)C(N)=N2)c(=O)n(C)c1 [Example 171, (R)—N-(5-(5-amino-3,6,6-trimethyl-1,1-dioxido-3,6-dihydro-2H-1,4-thiazin-3-yl)-1-methyl-6-oxo-1,6-dihydropyridin-3-yl)-5-(difluoromethoxy)-3-methylpicolinamide]	0.00927 µM	186 µM	0.0083 µM	–	–	–	–	–
NC1=N[C@](CF)(c2cc(Br)ccc2F)CS(=O)(=O)C12CCC2 [Example 172, (S)-9-amino-7-(5-bromo-2-fluorophenyl)-7-(fluoromethyl)-5-thia-8-azaspiro[3.5]non-8-ene 5,5-dioxide]	–	45.4 µM	–	–	–	–	3.56 µM	> 15.6 µM
CC1(C)C(N)=N[C@](C)(c2cc(C(=O)Nc3ccc(C#N)cc3O)ccc2F)CS1(=O)=O [Example 173, (R)-3-(5-amino-3,6,6-trimethyl-1,1-dioxido-3,6-dihydro-2H-1,4-thiazin-3-yl)-N-(4-cyano-2-hydroxyphenyl)-4-fluorobenzamide]	2.29 µM	104 µM	> 15.6 µM	–	–	–	–	–
